Experimental data published in US12357598B2, “Treatment of neurodevelopmental disorders” (THE REGENTS OF THE UNIVERSITY OF CALIFORNIA, priority 2018, dated 2025).

Tests used:
parvalbumin (PV) = experiment: PV immunohistochemistry in mPFC, offspring after MIA; assay type: in vivo, mouse; conditions: adult offspring of poly(I:C)-treated mice vs saline-treated group
Description: Immunohistochemistry. Immunohistochemistry of PV was performed as reported previously (37,39,59,60). Mice were anesthetized with 5% isoflurane and sodium pentobarbital (50 mg/kg), and perfused transcardially with 10 mL of physiological saline, followed by 40 mL of ice-cold 4% paraformaldehyde in 0.1M phosphate buffer (pH 7.4). Brains were removed from the skulls and post fixed overnight at 4° C. in the same fixative. For the immunohistochemical analysis, 50 μm-thick serial, coronal sections of brain tissue were cut in ice-cold 0.01M phosphate buffered saline (pH 7.5) using a vibrating blade microtome (VT1000s, Leica Microsystems, Tokyo, Japan). Free-floating sections were treated with 0.3% H2O2 in 50 mM Tris-HCl saline (TBS) for 30 min and were blocked in TBS containing 0.2% Triton X-100 (TBST) and 1.5% normal serum for 1 h at room temperature. […] The sections were imaged, and the staining intensity of PV (or GADO immunoreactivity in the inflalimbic (IL) and prelimbic (PrL) regions of mPFC was analyzed using a light micro-scope equipped with a CCD camera (Olympus IX70, Tokyo, Japan) and the SCION IMAGE software package. Images of sections within mPFC region were captured using a 100× objective with a Keyence BZ-X710 microscope (Keyence Corporation, Osaka, Japan).

ddY mice = experiment: Oxylipin profiling of brain regions of juvenile offspring after prenatal poly(I:C) (MIA); assay type: in vivo, mouse; conditions: juvenile offspring (P28) after prenatal poly(I:C)
Description: Administration of poly(I:C) into pregnant mice. The schedule of poly(I:C) treatment was performed as reported previously (13,36-39). The pregnant mice were injected intraperitoneally (i.p.) for six consecutive days from E12 to E17 with poly(I:C) (5.0 mg/kg/day, Sigma-Aldrich Co. Ltd., St. Louis, MO, USA) dissolved in physiological saline, or an equivalent volume (5 ml/kg) of saline. The male offspring were separated from their mothers at wearing (P21), and mice were caged each three-five in the groups in clear polycarbonate cage (22.5×33.8×14.0 cm). Mice were housed under controlled temperatures and 12-hour light/dark cycles (lights on between 07:00-19:00 h), with ad libitum food and water.
Collection of brain samples and oxylipin profiling. The pregnant mice were injected i.p. with poly(I:C) (5.0 mg/kg/day for 6 days from E12 to E17) or saline, as described above. The male offspring were separated from their mothers at wearing (P21). On P28, mice were deeply anesthetized with isoflurane and brains were removed from the skulls. For Western blot analysis, brain regions such as prefrontal cortex (PFC), striatum, CA1, CA3 and dentate gyrus (DG) of the hippocampus were dissected from brain on ice using a Leica microscope S9E (Leica Microsystems, Tokyo, Japan). The samples were stored at −80° C. before assay. For oxylipin analysis, PFC, hippocampus, and cerebellum were dissected from brain on ice, and the samples were stored at −80° C. before assay. Measurement of eicosanoids was performed at UC Davis using the previous method (57).

polyriboinosinic-polyribocytidilic acid [Poly(I:C)]
PV-IR in the PrL of mPFC (parvalbumin (PV)): significantly lower
5(6)-EpETrE level (ddY mice; PFC): 222.07 ± 22.38 pmol/g tissue
6-keto-PGF1α level (ddY mice; PFC): 22.088 ± 1.785 pmol/g tissue
8(9)-EpETrE level (ddY mice; PFC): 6.725 ± 0.892 pmol/g tissue
9(10)-EpOME level (ddY mice; PFC): 2.695 ± 0.424 pmol/g tissue
9,10,13-TriHOME level (ddY mice; PFC): 22.676 ± 3.814 pmol/g tissue
9,10-DiHOME level (ddY mice; PFC): 1.069 ± 0.188 pmol/g tissue
9,12,13-TriHOME level (ddY mice; PFC): 39.728 ± 6.854 pmol/g tissue
9-HODE level (ddY mice; PFC): 24.253 ± 3.782 pmol/g tissue
9-oxo-ODE level (ddY mice; PFC): 15.032 ± 2.690 pmol/g tissue
10(11)-EpDPE level (ddY mice; PFC): 3.698 ± 0.292 pmol/g tissue
11(12)-EpETrE level (ddY mice; PFC): 26.639 ± 3.530 pmol/g tissue
11-HETE level (ddY mice; PFC): 72.292 ± 5.677 pmol/g tissue
12(13)-EpOME level (ddY mice; PFC): 2.934 ± 0.435 pmol/g tissue
12,13-DiHOME level (ddY mice; PFC): 4.640 ± 0.477 pmol/g tissue
12-HETE level (ddY mice; PFC): 28.597 ± 2.727 pmol/g tissue
13-HODE level (ddY mice; PFC): 31.020 ± 5.237 pmol/g tissue
14(15)-EpETrE level (ddY mice; PFC): 30.74 ± 5.605 pmol/g tissue
15,16-DiHODE level (ddY mice; PFC): 2.785 ± 0.414 pmol/g tissue
15-HETE level (ddY mice; PFC): 68.997 ± 4.672 pmol/g tissue
19,20-DiHDPE level (ddY mice; PFC): 4.319 ± 0.331 pmol/g tissue
EKODE level (ddY mice; PFC): 6.552 ± 1.725 pmol/g tissue
PGD2 level (ddY mice; PFC): 147.79 ± 9.748 pmol/g tissue
PGE2 level (ddY mice; PFC): 16.359 ± 1.175 pmol/g tissue
PGF2a level (ddY mice; PFC): 86.798 ± 6.454 pmol/g tissue
Thromboxane B2 level (ddY mice; PFC): 43.922 ± 3.349 pmol/g tissue
5(6)-EpETrE level (ddY mice; cerebellum): 174.37 ± 11.71 pmol/g tissue
6-keto-PGF1a level (ddY mice; cerebellum): 29.69 ± 1.379 pmol/g tissue
8(9)-EpETrE level (ddY mice; cerebellum): 5.453 ± 0.582 pmol/g tissue
9(10)-EpOME level (ddY mice; cerebellum): 3.076 ± 0.662 pmol/g tissue
9,10,13-TriHOME level (ddY mice; cerebellum): 20.84 ± 3.099 pmol/g tissue
9,10-DiHOME level (ddY mice; cerebellum): 1.283 ± 0.279 pmol/g tissue
9,12,13-TriHOME level (ddY mice; cerebellum): 37.62 ± 5.925 pmol/g tissue
9-HODE level (ddY mice; cerebellum): 23.33 ± 2.571 pmol/g tissue
9-oxo-ODE level (ddY mice; cerebellum): 16.56 ± 2.802 pmol/g tissue
10(11)-EpDPE level (ddY mice; cerebellum): 6.061 ± 0.717 pmol/g tissue
11(12)-EpETrE level (ddY mice; cerebellum): 21.10 ± 1.869 pmol/g tissue
12(13)-EpOME level (ddY mice; cerebellum): 2.989 ± 0.423 pmol/g tissue
12,13-DiHOME level (ddY mice; cerebellum): 5.406 ± 0.682 pmol/g tissue
13-HODE level (ddY mice; cerebellum): 30.47 ± 4.048 pmol/g tissue
14(15)-EpETrE level (ddY mice; cerebellum): 26.63 ± 3.595 pmol/g tissue
15,16-DiHODE level (ddY mice; cerebellum): 2.772 ± 0.423 pmol/g tissue
15-HETE level (ddY mice; cerebellum): 36.59 ± 3.256 pmol/g tissue
19,20-DiHDPE level (ddY mice; cerebellum): 9.767 ± 0.858 pmol/g tissue
EKODE level (ddY mice; cerebellum): 7.801 ± 1.325 pmol/g tissue
PGD2 level (ddY mice; cerebellum): 21.60 ± 1.774 pmol/g tissue
PGE2 level (ddY mice; cerebellum): 6.969 ± 0.684 pmol/g tissue
PGF2a level (ddY mice; cerebellum): 46.32 ± 3.830 pmol/g tissue
TXB2 level (ddY mice; cerebellum): 14.62 ± 0.876 pmol/g tissue
12-HETE level (ddY mice; cerebellum, first of two lines printed 12-HETE (r21)): 34.19 ± 3.215 pmol/g tissue
12-HETE level (ddY mice; cerebellum, second of two lines printed 12-HETE (r23)): 75.46 ± 28.38 pmol/g tissue
5(6)-EpETrE level (ddY mice; hippocampus): 333.09 ± 30.68 pmol/g tissue
6-keto-PGF1α level (ddY mice; hippocampus): 47.853 ± 3.589 pmol/g tissue
8(9)-EpETrE level (ddY mice; hippocampus): 10.53 ± 0.809 pmol/g tissue
9(10)-EpOME level (ddY mice; hippocampus): 3.933 ± 0.304 pmol/g tissue
9,10,13-TriHOME level (ddY mice; hippocampus): 31.142 ± 2.301 pmol/g tissue
9,10-DiHOME level (ddY mice; hippocampus): 0.814 ± 0.116 pmol/g tissue
9,12,13-TriHOME level (ddY mice; hippocampus): 54.137 ± 3.954 pmol/g tissue
9-HODE level (ddY mice; hippocampus): 34.887 ± 1.969 pmol/g tissue
9-oxo-ODE level (ddY mice; hippocampus): 24.50 ± 1.957 pmol/g tissue
10(11)-EpDPE level (ddY mice; hippocampus): 6.103 ± 0.347 pmol/g tissue
11(12)-EpETrE level (ddY mice; hippocampus): 42.05 ± 3.911 pmol/g tissue
11-HETE level (ddY mice; hippocampus): 106.263 ± 6.366 pmol/g tissue
12(13)-EpOME level (ddY mice; hippocampus): 4.641 ± 0.393 pmol/g tissue
12,13-DiHOME level (ddY mice; hippocampus): 4.478 ± 0.528 pmol/g tissue
12-HETE level (ddY mice; hippocampus): 83.22 ± 12.09 pmol/g tissue
13-HODE level (ddY mice; hippocampus): 41.916 ± 2.454 pmol/g tissue
14(15)-EpETrE level (ddY mice; hippocampus): 45.020 ± 3.734 pmol/g tissue
15,16-DiHODE level (ddY mice; hippocampus): 2.295 ± 0.364 pmol/g tissue
15-HETE level (ddY mice; hippocampus): 100.514 ± 6.210 pmol/g tissue
19,20-DiHDPE level (ddY mice; hippocampus): 4.228 ± 0.321 pmol/g tissue
EKODE level (ddY mice; hippocampus): 14.86 ± 0.949 pmol/g tissue
PGD2 level (ddY mice; hippocampus): 119.25 ± 8.999 pmol/g tissue
PGE2 level (ddY mice; hippocampus): 20.186 ± 1.410 pmol/g tissue
PGF2a level (ddY mice; hippocampus): 153.113 ± 10.00 pmol/g tissue
Thromboxane B2 level (ddY mice; hippocampus): 65.491 ± 5.906 pmol/g tissue
